Assay [1] deals with T1, His-SMAD4R361H/Flag-SMAD3 PPI (Homo sapiens, UniProt Q13485, R361H).
T1 construct: expressed in transfected cells; host or cells: HEK293T
Briefly: TR-FRET assay of the SMAD4R361H/SMAD3 protein-protein interaction in cell lysate. It is filed as binding. The following applies: dose-response, read-out: EC50, increase of the TR-FRET signal of SMAD4R361H-SMAD3 PPI.

In assay [2] the target is T2, SMAD4R361H-SMAD3 complex (Homo sapiens, UniProt Q13485, R361H).
T2 construct: expressed in transfected cells
T2 sequence (P84022 whole entry partner, one chain of several): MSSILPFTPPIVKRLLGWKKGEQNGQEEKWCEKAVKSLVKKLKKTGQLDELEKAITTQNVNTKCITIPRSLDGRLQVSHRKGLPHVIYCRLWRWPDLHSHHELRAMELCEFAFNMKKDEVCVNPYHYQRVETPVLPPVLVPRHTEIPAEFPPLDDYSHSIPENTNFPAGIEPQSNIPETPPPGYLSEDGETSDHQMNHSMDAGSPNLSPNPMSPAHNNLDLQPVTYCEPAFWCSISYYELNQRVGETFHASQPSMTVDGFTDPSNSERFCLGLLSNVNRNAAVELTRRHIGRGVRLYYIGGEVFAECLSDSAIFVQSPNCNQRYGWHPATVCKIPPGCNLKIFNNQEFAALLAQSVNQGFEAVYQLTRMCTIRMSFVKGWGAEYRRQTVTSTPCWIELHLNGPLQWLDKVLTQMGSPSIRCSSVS
The experiment in a line: GST beads pull-down assay of SMAD4R361H-SMAD3 complex formation. The format is binding. The conditions noted are these: cell lysate treated with compound, read-out: EC50, amount of SMAD3 in the SMAD4R361H complex.

The target of assay [3] is T3, SMAD4D351H-SMAD3 PPI (Homo sapiens, UniProt Q13485, D351H).
T3 construct: expressed in transfected cells
T3 sequence (Q13485 whole entry D351H): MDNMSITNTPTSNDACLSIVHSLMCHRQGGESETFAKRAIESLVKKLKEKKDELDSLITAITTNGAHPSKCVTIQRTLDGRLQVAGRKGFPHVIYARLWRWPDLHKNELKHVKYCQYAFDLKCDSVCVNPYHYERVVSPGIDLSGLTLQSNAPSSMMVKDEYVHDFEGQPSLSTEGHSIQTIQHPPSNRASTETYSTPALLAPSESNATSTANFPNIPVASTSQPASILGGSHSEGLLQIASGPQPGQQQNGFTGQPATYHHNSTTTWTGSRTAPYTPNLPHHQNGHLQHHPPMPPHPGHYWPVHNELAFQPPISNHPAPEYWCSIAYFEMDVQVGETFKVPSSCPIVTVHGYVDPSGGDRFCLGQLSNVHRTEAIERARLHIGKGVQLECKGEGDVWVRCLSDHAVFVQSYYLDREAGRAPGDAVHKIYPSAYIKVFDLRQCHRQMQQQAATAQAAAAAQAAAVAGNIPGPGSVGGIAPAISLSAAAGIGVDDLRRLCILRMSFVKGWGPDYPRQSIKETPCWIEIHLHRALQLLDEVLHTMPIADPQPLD
T3 sequence (P84022 whole entry partner): as the sequence (P84022 whole entry partner, one chain of several) above
The experiment in a line: GST pull-down assay of SMAD4D351H-SMAD3 complex formation. The conditions noted are these: DMSO as control. The format is binding. An excerpt: To evaluate the mutation selectivity of Ro-31-8220 and Go-6983, their potentiation effect on other SMAD4 loss-of-function mutations, such as D351H, was examined. The PPI between SMAD3 and SMAD4D351H was studied in the presence of these compounds with DMSO as a control.

Assay [4] deals with SMAD4R361H with R-SMADs (SMAD3, SMAD2, SMAD1, SMAD5, SMAD8). The experiment in a line: TR-FRET assay of SMAD4R361H with different R-SMAD isoforms. It is filed as binding, Homo sapiens. The following applies: for R-SMAD selectivity in inducing the interaction of SMAD4R361H with SMAD3 and SMAD2: among all the tested R-SMADs; for compound-induced TR-FRET signal for SMAD4R361H interaction with SMAD3 versus other R-SMADs: compound titration. How it is done:
To determine the R-SMADs selectivity of Ro-31-8220 and Go-6983, experiments were performed to determine their effects on inducing PPI between SMAD4R361H and different isoforms of R-SMADs using the TR-FRET assay.
Background: TR-FRET usually uses a lanthanide donor and a delayed reading to cut background.

In assay [5] the test system is HCT116 cells (WT), SMAD4 knockout (null) and R361H isogenic cells. The experiment in a line: Cell viability (CellTiter-Blue) in isogenic colon cancer cells. The format is cell-based. The following applies: Ro-31-8220 1 μM. How it is done: HCT116 cells (WT) and corresponding SMAD4 knockout (null) or R361H, isogenic cells were treated with TGF-β (10 ng/mL), Ro-31-8220 (1 μM), Go-6983 (10 μM), or in combination as indicated. The cell viability after treatment was measured using the CellTiter-Blue™ reagent and normalized to the untreated vehicle or DMSO controls (% C).
(§1) Experiments indicate that Ro-31-8220 is capable of restoring the SMAD4mut/SMAD3 PPI and the tumor-suppressive TGF-β signaling in the SMAD4 mutation cells. Experiments were also performed to determine whether Ro-31-8220 can promote TGF-β-evoked anti-proliferation function in cancer cells with SMAD4 missense mutations. Three functional assays were performed to measure the effect of Ro-31-8220 on cell-cycle progression, cell proliferation, and colony formation with WT and isogenic SMAD4 mutant colon cancer cells.
Thus, the effect of Ro-31-8220 on TGF-β-regulated cell proliferation was examined in the context of the SMAD4 mutation. TGF-β induced a significant decrease of cell viability of SMAD4 WT cells, while the isogenic SMAD4 null or R361H cells were resistant to such TGF-β-induced growth suppression (FIG. 3B).
(In general: Alamar Blue is a resazurin reagent that responds to reducing activity.)

Assay [6] has as its system HCT116 isogenic SMAD4 R361H cells. Briefly: Colony formation assay. The following applies: TGF-β 10 ng/mL; Ro-31-8220 1 μM, Go-6983 10 μM. The format is cell-based. How it is done:
Parental HCT116 (WT) and isogenic R361H cells were treated with TGF-β (10 ng/mL), Ro-31-8220 (1 μM), Go-6983 (10 μM), or in combination as indicated.
as §1
The lost tumor suppressor function of mutated SMAD4, R361H, can be recapitulated in an in vitro tumorigenic assay. Colon cancer HCT116 cells with WT and their isogenic mutant SMAD4 cells can grow into large colonies.

Assay [7] shares this test system. Briefly: Flow cytometry-based cell-cycle analysis (G1/S phase). The following applies: TGF-β 10 ng/mL; Ro-31-8220 1 μM, Go-6983 10 μM. How it is done:
Parental HCT116 (WT) and isogenic R361H cells were treated with TGF-β (10 ng/mL), Ro-31-8220 (1 μM), Go-6983 (10 μM), or in combination as indicated. The percentage of cells staying in G1/S phase was determined by flow cytometry.
as §1
Background: In flow cytometry, cells or beads pass a laser one at a time.

In assay [8] the test system is R361H cells. Briefly: Transcriptional response to TGF-β (pro-apoptotic and pro-autophagy genes). The format is cell-based.
For assay [9], the target named is Flag-SMAD3, P84022. The experiment in a line: TR-FRET, HEK293T cell lysate, anti-Flag-Tb / anti-His-D2. The conditions noted are these: remark: other sources report otherwise.
Sequence of Flag-SMAD3, P84022 (P84022 whole entry): as the sequence (P84022 whole entry partner, one chain of several) above

T1 sequence (P84022 whole entry partner, one chain of several): as above

With `COc1ccc2c(c1)c(C1=C(c3c[nH]c4ccccc34)C(=O)NC1=O)cn2CCCN(C)C` [Go-6983, 3-(1-(3-(dimethylamino)propyl)-5-methoxy-1H-indol-3-yl)-4-(1H-indol-3-yl)-1H-pyrrole-2,5-dione], the EC50 in assay [1] came out at 15.2 ± 2.9 µM. In addition, the EC50 in assay [2] was 8.9 ± 0.7 µM. The “SMAD3 level in the D351H GST pull-down complex” value in assay [3] is “significantly restored”. Also, in assay [4], the “R-SMAD selectivity in inducing the interaction of SMAD4R361H with SMAD3 and SMAD2” value was “selective”; the “compound-induced TR-FRET signal for SMAD4R361H interaction with SMAD3 versus other R-SMADs” value is “significantly higher”. Besides, the “combination with TGF-β in inhibiting cell viability” value in [5] (TGF-β 10 ng/mL, Go-6983 10 μM) is reported as “synergistic effect”. Moreover, the “combination with TGF-β in inhibiting colon cancer cell colony formation” value in assay [6] was “synergistic effect”.
In the case of `Cn1cc(C2=C(c3cn(CCCSC(=N)N)c4ccccc34)C(=O)NC2=O)c2ccccc21` [Ro-31-8220, 3-(3-(4-(1-methyl-1H-indol-3-yl)-2,5-dioxo-2,5-dihydro-1H-pyrrol-3-yl)-1H-indol-1-yl)propyl carbamimidothioate], the EC50 in assay [1] was 3.9 ± 1 µM. Also, the EC50 in assay [2] stood at 2.1 ± 0.7 µM. In addition, the “SMAD3 level in the D351H GST pull-down complex” value in assay [3] is “significantly restored”. Also, in assay [4], the “R-SMAD selectivity in inducing the interaction of SMAD4R361H with SMAD3 and SMAD2” value is given as “selective”; the “compound-induced TR-FRET signal for SMAD4R361H interaction with SMAD3 versus other R-SMADs” value is recorded as “significantly higher”. In [7], the “sensitivity of R361H cells to TGF-β-induced G1/S cell-cycle arrest” value is reported as “regained sensitivity”. In addition, the “sensitivity of SMAD4 R361H cells to TGF-β-induced growth suppression” value in assay [5] (R361H cells, TGF-β 10 ng/mL, Go-6983 10 μM) is listed as “restored the sensitivity”. Moreover, in assay [5] (SMAD4 WT, null and R361H cells), the “growth inhibition by compound treatment alone” value is given as “did not result in any significant growth inhibition”. Moreover, in assay [5] (TGF-β 10 ng/mL, Go-6983 10 μM), the “combination with TGF-β in inhibiting cell viability” value was “synergistic effect”. In addition, in assay [6], the “colony area of R361H cells, sensitivity to TGF-β-induced inhibition of colony formation” value is “significantly decreased colony area” and the “combination with TGF-β in inhibiting colon cancer cell colony formation” value was “synergistic effect”. For the same molecule, the “transcriptional response of R361H cells to TGF-β” value in assay [8] is given as “restored the transcriptional response”.

B1: His-SMAD4WT, Q13485 1-552 (protein, not shown: small tags and cut ends)
chain: MDNMSITNTPTSNDACLSIVHSLMCHRQGGESETFAKRAIESLVKKLKEKKDELDSLITAITTNGAHPSKCVTIQRTLDGRLQVAGRKGFPHVIYARLWRWPDLHKNELKHVKYCQYAFDLKCDSVCVNPYHYERVVSPGIDLSGLTLQSNAPSSMMVKDEYVHDFEGQPSLSTEGHSIQTIQHPPSNRASTETYSTPALLAPSESNATSTANFPNIPVASTSQPASILGGSHSEGLLQIASGPQPGQQQNGFTGQPATYHHNSTTTWTGSRTAPYTPNLPHHQNGHLQHHPPMPPHPGHYWPVHNELAFQPPISNHPAPEYWCSIAYFEMDVQVGETFKVPSSCPIVTVDGYVDPSGGDRFCLGQLSNVHRTEAIERARLHIGKGVQLECKGEGDVWVRCLSDHAVFVQSYYLDREAGRAPGDAVHKIYPSAYIKVFDLRQCHRQMQQQAATAQAAAAAQAAAVAGNIPGPGSVGGIAPAISLSAAAGIGVDDLRRLCILRMSFVKGWGPDYPRQSIKETPCWIEIHLHRALQLLDEVLHTMPIADPQPLD
Regarding B1, the signal-to-background ratio in assay [9] was determined as 30 fold.

B2: His-SMAD4R361H, Q13485 1-552 (protein, not shown: small tags and cut ends)
chain: MDNMSITNTPTSNDACLSIVHSLMCHRQGGESETFAKRAIESLVKKLKEKKDELDSLITAITTNGAHPSKCVTIQRTLDGRLQVAGRKGFPHVIYARLWRWPDLHKNELKHVKYCQYAFDLKCDSVCVNPYHYERVVSPGIDLSGLTLQSNAPSSMMVKDEYVHDFEGQPSLSTEGHSIQTIQHPPSNRASTETYSTPALLAPSESNATSTANFPNIPVASTSQPASILGGSHSEGLLQIASGPQPGQQQNGFTGQPATYHHNSTTTWTGSRTAPYTPNLPHHQNGHLQHHPPMPPHPGHYWPVHNELAFQPPISNHPAPEYWCSIAYFEMDVQVGETFKVPSSCPIVTVDGYVDPSGGDHFCLGQLSNVHRTEAIERARLHIGKGVQLECKGEGDVWVRCLSDHAVFVQSYYLDREAGRAPGDAVHKIYPSAYIKVFDLRQCHRQMQQQAATAQAAAAAQAAAVAGNIPGPGSVGGIAPAISLSAAAGIGVDDLRRLCILRMSFVKGWGPDYPRQSIKETPCWIEIHLHRALQLLDEVLHTMPIADPQPLD
For the molecule B2, the signal-to-background ratio in assay [9] is 10 fold.

As a reminder, the EC50 is the midpoint of the concentration-response curve.

The record behind these values is patent US20230201173A1, “SMAD4 Complex Inducers and Uses in Cancer Therapy” (Emory University, priority 2021, published 2023).
